The test system of one test is ETA and ETB receptors. The settings on record: cited from earlier work.
For the next test, the system named is breast tumor. The test can be described thus: Breast tumor blood perfusion by Laser Doppler Flowmetry in MNU-induced mammary tumor rats. Type of test: in vivo, rat. The conditions noted are these: for Maximal increase in tumor perfusion (%): Laser Doppler Flowmetry, breast tumor-bearing rats. Here is the method:
MNU or saline treatments were carried out as intraperitoneal injections three months prior to the study. Rats were regularly palpated from four weeks after onset of the treatments. When the tumors reached an optimal size (i.e., 4-8 mm in diameter), the experiments were begun. Systemic hemodynamic and regional circulation parameters were determined at baseline, 30, 60, and 120 minutes after initiating ET-1 (50 ng/kg/min) infusion.
Blood perfusion to the mammary gland of the rats was measured using laser Doppler flowmetry as described in literature procedures (23, 24). The animals were shaved around the nipples. The skin surrounding the mammary glands was dissected out as a lambeau about 6 cm wide and 4 cm long. A standard model fiber optic probe was applied to the surface of the lambeau, and secured to the tissue by double stick tape. The lambeau was placed in a metal holder and taped down to prevent movement, then connected to a Periflux PF2b 4000 Laser Doppler Flowmetry (Perimed KB, Stockholm, Sweden). The time constant was set at 1.5 seconds and the bandwidth was set at 4 KHz.
A preclinical model of MNU-induced primary autochthonous mammary tumor was used in the following studies. This tumor model of breast cancer offers several advantages over other models (Rai et al., Cancer Chemother. Parmaacol., 51(1):21-8 (2003)). Virgin female Sprague Dawley rats were used for the study. At 48 days of age, rats received a single injection of N-methyl nitrosourea (MNU; 50 mg/kg, i.v.). Eighty percent of the animals developed tumors two months after MNU injection and 10% of total rats may die or loose weight due to MNU injection or develop a tumor after several months. Tumor appearance and location is monitored by manual mammary gland palpation and the tumor diameter is measured with a digital caliper. Rats with a tumor volume of 200-500 mm^3 were selected for the experiments.
FIG. 2 illustrates the effect of IRL-1620 on breast tumor perfusion (N=5/group). Breast tumor-bearing rats were anesthetized and mammary tumor perfusion was recorded using a Laser Doppler Flowmetry for three hours. A 15-minute stable baseline recording was obtained before the administration of saline or IRL-1620 1, 3, or 9 nmol/kg via the tail vein in a final volume of 0.2 ml. Tumor perfusion was recorded for three hours (*p<0.001 compared to vehicle-treated rats).
Animals received BQ 788 ([…]) or saline via tail vein 15 minutes before the administration of IRL-1620 (3 nmol/kg) and tumor perfusion was recorded for three hours (*p<0.001 compared to BQ 788-administered rats). Studies also were conducted to determine the effect of IRL-1620 on blood perfusion in normal mammary tissue.

The subject of test [1] is tumor. The test can be described thus: Tumor blood flow with ETA receptor antagonists. The conditions noted are these: in vivo. As for the experimental part: A study using BMS182874, an ETA receptor antagonist, also was conducted.
Test [2] deals with tumor. The settings on record: Sonveaux et al. 2004; cited from earlier work.

Where two headings read alike, the source gives them in different places. Non-standard residues stand in square brackets, D forms with d. Residues, ends and D or L forms follow the SMILES beside them.

Turning to `CC[C@H](C)[C@H](NC(=O)[C@H](CC(=O)O)NC(=O)[C@H](CC(C)C)NC(=O)[C@H](Cc1c[nH]cn1)NC(=O)[C@@H]1CSSC[C@H](N)C(=O)N[C@@H](CO)C(=O)N[C@H]2CSSC[C@H](NC(=O)[C@H](CCC(=O)O)NC(=O)[C@H](CCCCN)NC(=O)[C@H](CC(=O)O)NC(=O)[C@H](CCSC)NC(=O)[C@H](CC(C)C)NC(=O)[C@H](CO)NC(=O)[C@H](CO)NC2=O)C(=O)N[C@@H](C(C)C)C(=O)N[C@@H](Cc2ccc(O)cc2)C(=O)N[C@@H](Cc2ccccc2)C(=O)N1)C(=O)N[C@H](C(=O)N[C@@H](Cc1c[nH]c2ccccc12)C(=O)O)[C@@H](C)CC` [ET-1, Endothelin-1], the “Selectivity for ETB receptors than ETA receptors” value (“Selectivity” below) in the test on ETA and ETB receptors is on record as “equal affinity”. Further, in the test on breast tumor, the “Maximal increase in tumor perfusion (%)” value is given as 46.19%. Moreover, in the test with breast tumor (rat, in vivo), the “Breast tumor perfusion after exogenous infusion” value is reported as “transient increase” and the “Perfusion to major organs” value is “without altering perfusion”.
As to `Cc1noc(NS(=O)(=O)c2cccc3c(N(C)C)cccc23)c1C` [BMS182874], the Tumor blood flow result with tumor [1] is recorded as “increased the tumor blood flow”.
Take “[Ala^1, 3, 11, 15]-ET-1 (ASASSLMDKEAVYFAHLDIIW; Endothelin-1; UniProt P05305 53-73, looked up, variant C1A C3A C11A C15A) [4 Ala ET-1]”: the “Selectivity” value in the test on ETA and ETB receptors was 1700 times. Further, the “Maximal increase in tumor perfusion (%)” value with breast tumor turned out to be 53.96%.
As for “ET-3: ET agonist three times more selective for ETB receptors than ETA receptors”, in the test on ETA and ETB receptors, the “Selectivity” value is “three times more selective”. In the test on breast tumor, the “Maximal increase in tumor perfusion (%)” value is recorded as 47.99%.
Consider `CC(C)C[C@@H]1NC(=O)[C@@H](C(C)C)NC(=O)[C@@H]2CCCN2C(=O)[C@@H](CC(=O)O)NC(=O)[C@@H](Cc2c[nH]c3ccccc23)NC1=O` [BQ123] (cyclo(L[dW][dD]P[dV])), for which, in the test on tumor [2], the Tumor blood flow result is recorded as “significantly improved”.
Take `CCCC[C@@H](NC(=O)[C@@H](Cc1cn(C(=O)OC)c2ccccc12)NC(=O)[C@H](CC(C)(C)C)NC(=O)N1[C@H](C)CCC[C@@H]1C)C(=O)O` [BQ788, N-cis-2,6-dimethylpiperidinocarbonyl-L-gamma-methylleucyl-D-1-methoxycarbonyltrptophanyl-D-Nle]: the “Effect of antagonist on IRL-1620 induced tumor blood perfusion” value in the test with breast tumor (BQ 788 0.5 μg/kg 15 minutes before IRL-1620 3 nmol/kg) is “completely blocked”. Further, the “Effect of antagonist on ET-1 induced increase in tumor blood flow” value in the test with breast tumor (ET-1 induced) is reported as “completely blocked”.

These data come from patent US8980222B2, “Diagnostic use of endothelin ETB receptor agonists and ETA receptor antagonists in tumor imaging” (The Board of Trustees of the University of Illinois, priority 2004, dated 2015).
